Marks after values point to notes of the source that are not given here.
Tests used:
[1] = Rat pharmacokinetic study, plasma; format: in vivo, Sprague-Dawley rat; settings: for plasma concentration, individual rats: AT-527 500 mg/kg oral, male 1-3, female 7-9, BQL: <0.0017 AT-511, <0.0022 M1, <0.0032 AT-273, M4
[2] = Monkey PK study, plasma; format: in vivo, cynomolgus monkey; settings: for plasma concentration: male cynomolgus monkeys; for AUC(0-t) / Cmax / MRT last / Tmax: male, cynomolgus, cynomolgus monkey, in vivo, po;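 on plasma concentration: concentrations in nmol/mL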
Excerpt: (§1) Monkey PK study. Male non-naïve cynomolgus monkeys were obtained from Hainan Jingang Laboratory Animal Co., Ltd. (Hainan, China), group housed during the 5-day acclimation period or individually housed during the study in stainless steel mesh cages, provided ad libitum access to RO water, fed twice daily (~120 g Certified Monkey Diet daily; Beijing Vital Keao Feed Co., Ltd., Beijing, China) and given daily treats of fresh fruit. Additional environmental enrichment included classical music and cartoons. Three groups of 5 monkeys each were administered 30, 100 or 300 mg/kg AT-527 as a powder filled in empty porcine hard gelatin capsules (size 0). The monkeys were fasted overnight prior to dosing and fed 4 h after dosing. Three dosages were selected to provide assessments of dose proportionality, the top two representing potential doses for a repeated oral dose toxicity study in monkeys, and the lowest predicted to be more therapeutically relevant. A pill gun was used to place the capsule beyond the root of the animals’ tongues and their mouths were held loosely closed for approximately 30 sec to allow them to move the jaw and swallow the capsule. Immediately following capsule administration, 20 mL of water was given by mouth and then the mouth was opened to ensure the capsule was swallowed. Blood samples (~0.6 mL) were collected up to 72 h from three animals per dose group, and up to 4 h from the remaining two animals in each group, at the same time points described for rats. […] Blood samples were collected with a syringe from a peripheral blood vessel from restrained, non-sedated animals, immediately transferred to pre-chilled tubes containing ~1 mg K2EDTA•2H20 and 20 μL of 5 mM dichlorvos solution, mixed and placed on ice until plasma was prepared by centrifugation as described for rats. Immediately after centrifugation, plasma samples were extracted with 4 volumes ISS2, and the supernatants were clarified by centrifugation (12,000 rpm, 10 min, 4°C) and stored at ≤ -60°C until analyzed by LC-MS/MS as described below. After the 4-hr blood collection, two monkeys per dose group were anesthetized with intravenous injection of pentobarbital sodium (60 mg/kg) and then euthanized as described for rats. […] All analytes were quantitated by LC-MS/MS as described below.
LC-MS/MS analysis of rat and monkey plasma and tissue homogenate supernatants. For the analysis of AT-511 in rat plasma, aliquots were extracted with 10 volumes ISS2. The supernatants were clarified by centrifugation (4000 rpm for 10 min at 4°C) and 3 μL samples were injected onto an Acuity BEH C18 1.7 μm, 2.1 × 50 mm column and a Sciex API 4000 mass spectrometer (ESI positive ion, MRM mode). Mobile phases A (0.025% formic acid (FA) and 1 mM ammonium acetate (AA) in 5% ACN in water) and B (0.025% FA and 1 mM AA in 95% ACN in water) were used to elute samples (3 μL) at 0.6 mL/min with 10% B for 0.3 min followed by linear gradients to 60% B over 0.6 min and to 90% B over 0.2 min, and ending with 90% B for 0.4 min.
PK data analysis. […] The linear/log trapezoidal rule was applied in obtaining the PK parameters.

[3] = Monkey PK study, liver and heart tissue levels; format: in vivo, cynomolgus monkey; settings: for Mean Concentration at 4 hr Postdose, Liver / Liver/Heart Ratio / Mean Concentration at 4 hr Postdose, Heart: monkey; for Liver/Heart Ratio: 4 h; for Mean Concentration at 4 hr Postdose, Heart: footnoted values extrapolated below LLOQ
Excerpt: as §1
For the analysis of AT-9010 in rat tissue homogenate supernatant, aliquots were diluted 1:2 with water and injected onto an Agilent Zorbax Extend C18 5 μm, 2.1 × 50 mm column and a Sciex API 4000 mass spectrometer (ESI positive ion, MRM mode). Mobile phases A (0.001% ammonia and 0.18 mM DBAA in water (1:1, v/v) and B (10 mM dimethylhexylamine (DMHA) and 3 mM AA in 50% ACN in water) were used to elute samples (60 μL) at 0.7 mL/min with 2% B for 0.8 min followed by a linear gradient to 30% B over 0.4 min, isocratic elution at 30% B for 0.4 min, a linear gradient to 95% B over 0.4 min, and ending with 95% B for 0.4 min. The analysis of AT-9010 in monkey tissue homogenate supernatant was the same except the sample injection volume was 20 μL. Attempts to measure tissue levels of other potentially formed TPs, including 2,6-diaminopurine-2’-F-2’-C-methylribosyl-5’-triphosphate and 2-amino-6-methylaminopurine-2’-F-2’-C-methylribosyl-5’-triphosphate (M2-TP), also used this method.
For the analysis of M2 and M3 in monkey tissue homogenate supernatant, aliquots were diluted 1:3 with water and injected onto an Acuity HSS T3 1.8 μm, 2.1 × 50 mm column and a Sciex API 6500 mass spectrometer (ESI positive ion, MRM mode). Mobile phases A (0.3% FA and 10 mM AA in water and B (0.3% FA and 10 mM AA in 95% ACN in water) were used to elute samples (1 μL) at 0.6 mL/min with 0% B for 0.4 min followed by linear gradients to 30% B over 0.5 min and to 95% B over 0.2 min, ending with isocratic elution at 95% B for 0.4 min.

[4] = Intracellular metabolism in human hepatocytes; format: in vitro ADME
Protocol: Hepatocytes. […] Cryopreserved male mouse (CD1), and fresh male Beagle dog and male cynomolgus monkey hepatocytes were obtained from BioreclamationIVT (Baltimore, MD) and were similarly plated with Matrigel in 6- or 24-well plates and maintained overnight in InVitroGRO™HI medium with Torpedo™ antibiotic (BioreclamationIVT). The protocol described above for measuring AT-511 and its metabolites in Huh-7 cells was repeated with the five different hepatocytes. Untreated cells were collected at 24 h, and the protein content of the cell lysates were determined using a bicinchoninic acid protein assay kit to assess the number of cells in each incubation. Separately, plated human hepatocytes were incubated for 6 h with 100 μM AT-511, followed by washout periods of 0, 2, 6, 18 and 30 h.
S3 Protocol. LC-MS/MS analysis of AT-511 and metabolites in cultured cells. The supernatant extracts of each hepatocyte and Huh-7 cell incubation were separately analyzed by four different LC-MS/MS methods for quantitation of phosphoramidates, nucleosides, monophosphates, and triphosphates (methods 1, 2, 3 and 4, respectively), using synthetic reference standards of actually and potentially present compounds and using structurally related analogs as internal standards. Briefly, a Luna PFP (2), 5 µm, 100 x 4.6 mm column and an AB Sciex API-6500 mass spectrometer (ESI positive ion, MRM mode) were used for methods 1-3 and an XBridge Oligonucleotide, BEH C18, 2.5 µm, 50 x 2.1 mm column and a Thermo QE Plus mass spectrometer (electrospray, negative ion mode) were used for method 4. For methods 1 and 2, mobile phases A (10 mM ammonium acetate in water) and B (acetonitrile:methanol, 1:1, v/v) were used to elute samples (5 µL) at 1 mL/min with 15% B for 1.5 min followed by a linear gradient to 75% B over 1 min (method 1) or with 54% B for 1.3 min followed by a linear gradient to 90% B over 1.2 min. Method 3 was the same except mobile phase A was 0.3% acetic acid in water, […] and samples were eluted with 3% B for 3 min followed by a linear gradient to 55% B over 1.2 min. For method 4, mobile phase A (3 mM ammonium formate with 10 mM dimethylhexylamine (DMHA) in water) and mobile phase B (3 mM ammonium formate with 10 mM DMHA in acetonitrile:water, 1:1, v/v) were used to elute samples at 0.4 mL/min with 0% B for 1.5 min followed by a linear gradient to 100% B over 2 min and ending with an isocratic elution for 0.5 min at 100% B.

[5] = both sexes, Sprague-Dawley, rat, in vivo, po, 500 mg/kg

What does the source list for `CNc1nc(N)nc2c1ncn2[C@@H]1O[C@H](CO[P@@](=O)(N[C@@H](C)C(=O)OC(C)C)Oc2ccccc2)[C@@H](O)[C@@]1(C)F` [AT-527]?
unusual or adverse clinical signs ([1]; rats, single oral 500 mg/kg): no such signs noted; unusual or adverse clinical signs ([2]; monkeys, single oral 30, 100 or 300 mg/kg): no such signs noted

What does the source list for `CNc1nc(N)nc2c1ncn2[C@@H]1O[C@H](COP(=O)(O)O)[C@@H](O)[C@@]1(C)F` [M2]?
Mean Concentration at 4 hr Postdose, Liver ([3]; AT-527 30 mg/kg oral): 103 pmol/g; Liver/Heart Ratio ([3]; AT-527 30 mg/kg oral): 19^a; Mean Concentration at 4 hr Postdose, Heart ([3]; AT-527 30 mg/kg oral): 5.4^a pmol/g; Mean Concentration at 4 hr Postdose, Liver ([3]; AT-527 100 mg/kg oral): 479 pmol/g; Liver/Heart Ratio ([3]; AT-527 100 mg/kg oral): 48^a; Mean Concentration at 4 hr Postdose, Heart ([3]; AT-527 100 mg/kg oral): 9.9^a pmol/g; Mean Concentration at 4 hr Postdose, Liver ([3]; AT-527 300 mg/kg oral): 87.9 pmol/g; Liver/Heart Ratio ([3]; AT-527 300 mg/kg oral): 13^a; Mean Concentration at 4 hr Postdose, Heart ([3]; AT-527 300 mg/kg oral): 6.6^a pmol/g

With `CNc1nc(N)nc2c1ncn2[C@@H]1O[C@H](COP(=O)(O)OP(=O)(O)OP(=O)(O)O)[C@@H](O)[C@@]1(C)F` [5’-TP of M2, 2-amino-6-methylaminopurine-2’-F-2’-C-methylribosyl-5’-triphosphate] as the compound, how does the “concentration in liver and heart tissue” value ([3]; cynomolgus monkey, in vivo) read?
Its value is less than 110 pmol/g.

What about the intracellular detection [4] of the same compound?
The intracellular detection was “not detected”.

With `C[C@@]1(F)[C@H](O)[C@@H](COP(=O)(O)O)O[C@H]1n1cnc2c(=O)[nH]c(N)nc21` [M3] as the compound, how does the “Mean Concentration at 4 hr Postdose, Liver” value (“Mean Concentration … Liver” for short) ([3]; AT-527 30 mg/kg oral) read?
The value was 78.8 pmol/g.

And the “Liver/Heart Ratio” value ([3]; AT-527 30 mg/kg oral)?
The value was 11^a.

What about the “Mean Concentration at 4 hr Postdose, Heart” value (shortened to “Mean Concentration … Heart”) ([3]; AT-527 30 mg/kg oral) of the same compound?
The value was 7.5^a pmol/g.

What about the “Mean Concentration … Liver” value ([3]; AT-527 100 mg/kg oral) of the same compound?
Its value is 203 pmol/g.

What about the “Liver/Heart Ratio” value ([3]; AT-527 100 mg/kg oral) of the same compound?
Its value is 26^a.

What about the “Mean Concentration … Heart” value ([3]; AT-527 100 mg/kg oral) of the same compound?
The value was 7.9^a pmol/g.

What about the “Mean Concentration … Liver” value ([3]; AT-527 300 mg/kg oral) of the same compound?
Its value is 1180 pmol/g.

What about the “Liver/Heart Ratio” value ([3]; AT-527 300 mg/kg oral) of the same compound?
The value was 72.

And the “Mean Concentration … Heart” value ([3]; AT-527 300 mg/kg oral)?
Its value is 16.5 pmol/g.

Which results are given for `CNc1nc(N)nc2c1ncn2[C@@H]1O[C@H](CO[P@](=O)(O)N[C@@H](C)C(=O)O)[C@@H](O)[C@@]1(C)F` [M1]?
plasma concentration, individual rats ([1]; 48.0 h): BQL; plasma concentration, individual rats ([1]; 72.0 h): BQL; AUC(0-t) [1, 5]: 77.9 ± 20.3 µM·h; Cmax [1, 5]: 40.8 ± 9.7 µM; MRT last [1, 5]: 2.54 ± 0.41 h; Tmax [1, 5]: 0.58 ± 0.14 h; Liver/Heart Ratio ([3]; AT-527 30 mg/kg oral): 3.7; Liver/Heart Ratio ([3]; AT-527 100 mg/kg oral): 3.6; Liver/Heart Ratio ([3]; AT-527 300 mg/kg oral): 5.6; plasma concentration ([2]; single oral AT-527 30 mg/kg, 0.500 h, monkey 1): BQL; plasma concentration ([2]; single oral AT-527 30 mg/kg, 48.0 h, monkey 1): BQL; plasma concentration ([2]; single oral AT-527 30 mg/kg, 48.0 h, monkey 2): BQL; plasma concentration ([2]; single oral AT-527 30 mg/kg, 72.0 h, monkey 1): BQL; plasma concentration ([2]; single oral AT-527 30 mg/kg, 72.0 h, monkey 2): BQL; plasma concentration ([2]; single oral AT-527 30 mg/kg, 72.0 h, monkey 3): BQL; plasma concentration ([2]; single oral AT-527 100 mg/kg, 48.0 h, monkey 1): BQL; plasma concentration ([2]; single oral AT-527 100 mg/kg, 48.0 h, monkey 2): BQL; plasma concentration ([2]; single oral AT-527 100 mg/kg, 72.0 h, monkey 1): BQL; plasma concentration ([2]; single oral AT-527 100 mg/kg, 72.0 h, monkey 2): BQL; plasma concentration ([2]; single oral AT-527 100 mg/kg, 72.0 h, monkey 3): BQL; plasma concentration ([2]; single oral AT-527 300 mg/kg, 0.500 h, monkey 1): BQL; plasma concentration ([2]; single oral AT-527 300 mg/kg, 48.0 h, monkey 2): BQL; plasma concentration ([2]; single oral AT-527 300 mg/kg, 48.0 h, monkey 3): BQL; plasma concentration ([2]; single oral AT-527 300 mg/kg, 72.0 h, monkey 1): BQL; plasma concentration ([2]; single oral AT-527 300 mg/kg, 72.0 h, monkey 2): BQL; plasma concentration ([2]; single oral AT-527 300 mg/kg, 72.0 h, monkey 3): BQL; AUC(0-t) ([2]; 30 mg/kg): 5.44 ± 2.76 µM·h; Cmax ([2]; 30 mg/kg): 0.94 ± 0.61 µM; MRT last ([2]; 30 mg/kg): 7.06 ± 1.07 h; Tmax ([2]; 30 mg/kg): 4.67 ± 2.31 h; AUC(0-t) ([2]; 100 mg/kg): 25.5 ± 10.1 µM·h; Cmax ([2]; 100 mg/kg): 4.24 ± 2.84 µM; MRT last ([2]; 100 mg/kg): 7.22 ± 0.48 h; AUC(0-t) ([2]; 300 mg/kg): 35.6 ± 26.4 µM·h; Cmax ([2]; 300 mg/kg): 4.44 ± 4.74 µM; MRT last ([2]; 300 mg/kg): 11.4 ± 3.6 h; Tmax ([2]; 300 mg/kg): 4.67 ± 1.16 h

Reference: PMC6949113, “Preclinical evaluation of AT-527, a novel guanosine nucleotide prodrug with potent, pan-genotypic activity against hepatitis C virus” (PLoS ONE, 2020)
